According to EP0949270A1, “Synthetic peptides containing citrulline recognized by rheumatoid arthritis sera as tools for diagnosis and treatment” (INNOGENETICS N.V., priority 1998, dated 1999):
Ends that are not written are not given here.

Columns and labels:
[1] = test system: antifilaggrin antibodies in human sera; experiment: Line Immuno Assay (LIA): reactivity of streptavidin-complexed synthetic peptides with human sera; type: binding; conditions: for LIA signals: 26 human RA sera (Fig. 3), peptides applied at 400 µg/ml, citrulline-containing peptides versus non-modified counterparts; for Reactivity in the LIA system: 75 sera from patients fulfilling the ARA criteria for RA, 13 synthetic peptides tested; for Immunoreaction towards peptide, comparison between peptides: in all serum groups; for Reactivity of sera on synthetic peptides: sera IG35038/ 35041
Description: Human sera were obtained from the Department of Rheumatology of the University Hospital in Ghent (Belgium). In total, 265 sera were included, of which 75 fulfilled the ARA criteria for RA (Arnett et al., Arthritis Rheum.,31: 315-324, 1987), 155 sera scored positive in the APF fluorescence test (De Keyser et al., in press), 98 reacted with natural filaggrin on Western blot, 80 were APF negative and 16 were derived from healthy controls.
Streptavidin-complexed peptides were applied directly on a nylon membrane with a plastic backing. Blocked strips were incubated overnight with human sera diluted 1/100 in 1 ml PBS, 0.5% caseine, 0.1% Triton X705, 10 mM MgCl2.6H2O. After washing with PBS, 0.05% Tween20, goat anti-human IgG-AP conjugated (Promega) diluted in PBS, 0.1% caseine, 0.2% Triton X705 was added for 1h30. Strips were developed in 100 mM NaCl, 100 mM Tris-HCl, pH 9.8, 50 mM MgCl2.6H2O substrate buffer containing the chromogenic substrate NBT/ BCIP. Reaction was stopped after 30 min by addition of 0.2 N H2SO4.

[2] = test system: anti-filaggrin binding; experiment: Inhibition ELISA on plates coated with human natural filaggrin, sera preincubated with competitor; conditions: peptide as competitor at 100 µg/ml; 4 APF positive sera
Procedure: Electro-eluted human natural filaggrin was coated in Maxisorp polystyrene plates at a concentration of 1 or 4 µg/ml in 50 mM carbonate buffer, pH 9.6 overnight at 4°C. Sera were diluted 1/50 in PBS, and preincubated with either the appropriate peptides at 100 µg/ml, with isolated natural filaggrin at 1 or 10 µg/ml (positive control) or with PBS (negative control) for 2 hours. The plates were blocked 1 hour with PBS, 0.1% caseïne at 37°C and subsequently incubated with the sera. During 2 hours at 37°C. Plates were washed 5 times with PBS, 0.05% Tween 20 and incubated with anti-human IgG-HRP in PBS, 0.1 % caseïne, 0.1 mM K3Fe(CN)6. Colour development was performed using tetramethylbenzidine diluted 1/100 into 0.1 M Na2HPO4, 0.1 M citric acid, 0.006% H2O2, pH 4.3. Reaction was stopped by addition of 2N H2SO4 and OD values were measured at 450 nm using a Bio-tek ELISA reader. The percentage of inhibition was caculated as folows: [formula]

[3] = serum group APF neg., number of sera 80
[4] = serum group APF pos., number of sera 155
[5] = serum group Fg blot pos., number of sera 98
[6] = serum group Healthy, number of sera 16
[7] = serum group RA sera, number of sera 75

DSGHRGYSGSQASDNEGH [IGP1157] (also: Arg may be citrulline in one of each IGP pair, not given here)
LIA signals [1]: positive | Reactivity in the LIA system [1]: Reactivity was noted | Immunoreaction towards peptide, comparison between peptides [1]: very faint | Reactivity of sera on synthetic peptides [1]: negative | Immunoreactivity of human sera with synthetic peptide: number of reactive sera [1, 3]: 2/61 | Immunoreactivity of human sera with synthetic peptide: percentage of reactive sera [1, 3]: 3.3% | Immunoreactivity of human sera with synthetic peptide: number of reactive sera [1, 4]: 4/128 | Immunoreactivity of human sera with synthetic peptide: percentage of reactive sera [1, 4]: 3.1% | Immunoreactivity of human sera with synthetic peptide: number of reactive sera [1, 5]: 4/94 | Immunoreactivity of human sera with synthetic peptide: percentage of reactive sera [1, 5]: 4.2% | Immunoreactivity of human sera with synthetic peptide: number of reactive sera [1, 6]: 0/10 | Immunoreactivity of human sera with synthetic peptide: percentage of reactive sera [1, 6]: 0% | Immunoreactivity of human sera with synthetic peptide: number of reactive sera [1, 7]: 3/72 | Immunoreactivity of human sera with synthetic peptide: percentage of reactive sera [1, 7]: 4.2%

DSGHRGYSGSQASDNEGH [IGP1181] (also: Arg may be citrulline in one of each IGP pair, not given here) [reference compound]
LIA signals [1]: disappeared completely

GGQGSRHQQAR [IGP1249]
Reactivity in the LIA system [1]: Reactivity was noted | Immunoreactivity of human sera with synthetic peptide: number of reactive sera [1, 3]: 1/79 | Immunoreactivity of human sera with synthetic peptide: percentage of reactive sera [1, 3]: 1.3% | Immunoreactivity of human sera with synthetic peptide: number of reactive sera [1, 4]: 23/150 | Immunoreactivity of human sera with synthetic peptide: percentage of reactive sera [1, 4]: 15.3% | Immunoreactivity of human sera with synthetic peptide: number of reactive sera [1, 5]: 17/94 | Immunoreactivity of human sera with synthetic peptide: percentage of reactive sera [1, 5]: 18.1% | Immunoreactivity of human sera with synthetic peptide: number of reactive sera [1, 6]: 1 | Immunoreactivity of human sera with synthetic peptide: percentage of reactive sera [1, 6]: 6.3% | Immunoreactivity of human sera with synthetic peptide: number of reactive sera [1, 7]: 9/73 | Immunoreactivity of human sera with synthetic peptide: percentage of reactive sera [1, 7]: 12.3%

HSASQDGQDTIRGHPGSS [IGP1155] (also: Arg may be citrulline in one of each IGP pair, not given here)
LIA signals [1]: positive | Reactivity in the LIA system [1]: Reactivity was noted | Reactivity of sera on synthetic peptides [1]: negative | Immunoreactivity of human sera with synthetic peptide: number of reactive sera [1, 3]: 4 | Immunoreactivity of human sera with synthetic peptide: percentage of reactive sera [1, 3]: 5.5% | Immunoreactivity of human sera with synthetic peptide: number of reactive sera [1, 4]: 35 | Immunoreactivity of human sera with synthetic peptide: percentage of reactive sera [1, 4]: 22.6% | Immunoreactivity of human sera with synthetic peptide: number of reactive sera [1, 5]: 35 | Immunoreactivity of human sera with synthetic peptide: percentage of reactive sera [1, 5]: 37.2% | Immunoreactivity of human sera with synthetic peptide: number of reactive sera [1, 6]: 1 | Immunoreactivity of human sera with synthetic peptide: percentage of reactive sera [1, 6]: 6.3% | Immunoreactivity of human sera with synthetic peptide: number of reactive sera [1, 7]: 17 | Immunoreactivity of human sera with synthetic peptide: percentage of reactive sera [1, 7]: 22.7% | number of sera significantly inhibited [2]: 2 out of 4

HSASQDGQDTIRGHPGSS [IGP1179] (also: Arg may be citrulline in one of each IGP pair, not given here) [reference compound]
LIA signals [1]: disappeared completely

HSGIGHGQASSAVRDSGHRGYS [IGP1156] (not fully specified; also: Arg may be citrulline in one of each IGP pair, not given here)
LIA signals [1]: positive | Reactivity in the LIA system [1]: Reactivity was noted | Immunoreaction towards peptide, comparison between peptides [1]: best reactive | Reactivity of sera on synthetic peptides [1]: negative | Immunoreactivity of human sera with synthetic peptide: number of reactive sera [1, 3]: 4 | Immunoreactivity of human sera with synthetic peptide: percentage of reactive sera [1, 3]: 5.5% | Immunoreactivity of human sera with synthetic peptide: number of reactive sera [1, 4]: 50 | Immunoreactivity of human sera with synthetic peptide: percentage of reactive sera [1, 4]: 32.2% | Immunoreactivity of human sera with synthetic peptide: number of reactive sera [1, 5]: 46 | Immunoreactivity of human sera with synthetic peptide: percentage of reactive sera [1, 5]: 48.9% | Immunoreactivity of human sera with synthetic peptide: number of reactive sera [1, 6]: 2 | Immunoreactivity of human sera with synthetic peptide: percentage of reactive sera [1, 6]: 12.5% | Immunoreactivity of human sera with synthetic peptide: number of reactive sera [1, 7]: 25 | Immunoreactivity of human sera with synthetic peptide: percentage of reactive sera [1, 7]: 33.3%

HSGIGHGQASSAVRDSGHRGYS [IGP1180] (also: Arg may be citrulline in one of each IGP pair, not given here) [reference compound]
LIA signals [1]: disappeared completely

HSTSQEGQDTIHGHRGS [IGP1158] (also: Arg may be citrulline in one of each IGP pair, not given here)
LIA signals [1]: positive | Reactivity in the LIA system [1]: Reactivity was noted | Immunoreaction towards peptide, comparison between peptides [1]: best reactive | Reactivity of sera on synthetic peptides [1]: negative | Immunoreactivity of human sera with synthetic peptide: number of reactive sera [1, 3]: 5/79 | Immunoreactivity of human sera with synthetic peptide: percentage of reactive sera [1, 3]: 6.3% | Immunoreactivity of human sera with synthetic peptide: number of reactive sera [1, 4]: 42 | Immunoreactivity of human sera with synthetic peptide: percentage of reactive sera [1, 4]: 27.1% | Immunoreactivity of human sera with synthetic peptide: number of reactive sera [1, 5]: 41 | Immunoreactivity of human sera with synthetic peptide: percentage of reactive sera [1, 5]: 43.6% | Immunoreactivity of human sera with synthetic peptide: number of reactive sera [1, 6]: 1 | Immunoreactivity of human sera with synthetic peptide: percentage of reactive sera [1, 6]: 6.3% | Immunoreactivity of human sera with synthetic peptide: number of reactive sera [1, 7]: 24 | Immunoreactivity of human sera with synthetic peptide: percentage of reactive sera [1, 7]: 32% | number of sera significantly inhibited [2]: 1

HSTSQEGQDTIHGHRGS [IGP1182] (also: Arg may be citrulline in one of each IGP pair, not given here) [reference compound]
LIA signals [1]: disappeared completely
